From ChEMBL document CHEMBL1201862, “PubChem BioAssay data set” (2004)
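Each compound was tested at five concentrations against cells in 96-well plates for 48 hours. Here, GI50 denotes the concentration required for 50% inhibition of growth.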 Activity calls are given as the source filed them. Rule as the data show it: active = GI50 up to about 1.1 µM and inactive = higher.

What was measured:
Test in all cases: growth of human tumour cells (NCI), 48 h
[1] = tested on: CAKI-1
[2] = tested on: CCRF-CEM
[3] = tested on: HCT-116
[4] = tested on: HCT-15
[5] = tested on: HOP-62
[6] = tested on: HOP-92
[7] = tested on: IGROV-1
[8] = tested on: LOX IMVI
[9] = tested on: MDA-MB-231
[10] = tested on: Malme-3M
[11] = tested on: NCI-H226
[12] = tested on: NCI-H23
[13] = tested on: OVCAR-8
[14] = tested on: PC-3
[15] = tested on: RPMI-8226
[16] = tested on: RXF 393
[17] = tested on: SK-MEL-28
[18] = tested on: SK-MEL-5
[19] = tested on: SK-OV-3
[20] = tested on: U-251

## Cc1ccc2c3ccc4c(c3n(C)c2c1)C(=O)C=CC4=O
[1]
  GI50: 3.36 µM (inactive)
[2]
  GI50: 0.335 µM (active)
[3]
  GI50: 2.33 µM (inactive)
[4]
  GI50: 4.6 µM
[5]
  GI50: > 10 µM (inactive)
[6]
  GI50: 3.1 µM (inactive)
[7]
  GI50: > 10 µM (inactive)
[8]
  GI50: > 10 µM (inactive)
[9]
  GI50: 3.97 µM (inactive)
[10]
  GI50: 2.58 µM (inactive)
[11]
  GI50: > 10 µM (inactive)
[12]
  GI50: > 9.23 µM (inactive)
[13]
  GI50: 4.47 µM (inactive)
[14]
  GI50: > 10 µM (inactive)
[15]
  GI50: 2.39 µM (inactive)
[16]
  GI50: 4.25 µM (inactive)
[17]
  GI50: > 6.01 µM (inactive)
[18]
  GI50: > 10 µM (inactive)
[19]
  GI50: > 10 µM (inactive)
[20]
  GI50: > 10 µM (inactive)

## CCOC(=O)c1c(NC(=O)c2ccccc2)c(C#N)c2n1CCCCC2
[1]
  GI50: > 100 µM (inactive)
[2]
  GI50: > 100 µM (inactive)
[3]
  GI50: > 100 µM (inactive)
[4]
  GI50: > 100 µM
[5]
  GI50: > 100 µM (inactive)
[6]
  GI50: > 100 µM (inactive)
[7]
  GI50: > 100 µM (inactive)
[8]
  GI50: > 100 µM (inactive)
[9]
  GI50: > 100 µM (inactive)
[10]
  GI50: > 100 µM (inactive)
[11]
  GI50: > 100 µM (inactive)
[12]
  GI50: > 100 µM (inactive)
[13]
  GI50: > 100 µM (inactive)
[14]
  GI50: > 100 µM (inactive)
[15]
  GI50: > 100 µM (inactive)
[16]
  GI50: > 100 µM (inactive)
[17]
  GI50: > 100 µM (inactive)
[18]
  GI50: > 100 µM (inactive)
[19]
  GI50: > 100 µM (inactive)
[20]
  GI50: > 100 µM (inactive)

## O=C(O)CNC(=O)CO/N=C1/C(=C2/C(=O)Nc3ccccc32)Nc2ccccc21
[1]
  GI50: 28.1 µM (inactive)
[2]
  GI50: 42.8 µM (inactive)
[3]
  GI50: > 100 µM (inactive)
[4]
  GI50: 51.8 µM
[5]
  GI50: 27.4 µM (inactive)
[6]
  GI50: > 100 µM (inactive)
[7]
  GI50: 72.6 µM (inactive)
[8]
  GI50: > 100 µM (inactive)
[9]
  GI50: > 100 µM (inactive)
[10]
  GI50: > 100 µM (inactive)
[11]
  GI50: > 100 µM (inactive)
[12]
  GI50: > 100 µM (inactive)
[13]
  GI50: > 100 µM (inactive)
[14]
  GI50: 60.8 µM (inactive)
[15]
  GI50: > 100 µM (inactive)
[16]
  GI50: 55.1 µM (inactive)
[17]
  GI50: > 100 µM (inactive)
[18]
  GI50: 54.2 µM (inactive)
[19]
  GI50: 20.9 µM (inactive)
[20]
  GI50: > 100 µM (inactive)

## OCC1OC(n2cnc3c(SCc4ccccc4)ncnc32)C(O)C1O (stereo not given)
[1]
  GI50: 6.53 µM (inactive)
[2]
  GI50: 0.169 µM (active)
[3]
  GI50: 5.45 µM (inactive)
[4]
  GI50: 3.25 µM
[5]
  GI50: > 100 µM (inactive)
[6]
  GI50: 4.75 µM (inactive)
[7]
  GI50: > 89.1 µM (inactive)
[8]
  GI50: 2.13 µM (inactive)
[9]
  GI50: 5.48 µM (inactive)
[10]
  GI50: > 100 µM (inactive)
[11]
  GI50: > 67.3 µM (inactive)
[12]
  GI50: 4.86 µM (inactive)
[13]
  GI50: 1.04 µM (active)
[14]
  GI50: 4.94 µM (inactive)
[15]
  GI50: 19.4 µM (inactive)
[16]
  GI50: 20.2 µM (inactive)
[17]
  GI50: > 100 µM (inactive)
[18]
  GI50: > 100 µM (inactive)
[19]
  GI50: > 89.3 µM (inactive)
[20]
  GI50: > 100 µM (inactive)

## NS(=O)(=O)c1ccc(NC(=O)c2cc([N+](=O)[O-])cc([N+](=O)[O-])c2)cc1
[1]
  GI50: > 100 µM (inactive)
[2]
  GI50: 28.8 µM (inactive)
[3]
  GI50: 45 µM (inactive)
[4]
  GI50: 44.3 µM
[5]
  GI50: > 100 µM (inactive)
[6]
  GI50: 21.7 µM (inactive)
[7]
  GI50: 23.6 µM (inactive)
[8]
  GI50: 22.8 µM (inactive)
[9]
  GI50: 39.4 µM (inactive)
[10]
  GI50: 24.8 µM (inactive)
[11]
  GI50: 46.5 µM (inactive)
[12]
  GI50: 41.4 µM (inactive)
[13]
  GI50: 47.3 µM (inactive)
[14]
  GI50: 21.1 µM (inactive)
[15]
  GI50: 30.2 µM (inactive)
[16]
  GI50: > 100 µM (inactive)
[17]
  GI50: > 100 µM (inactive)
[18]
  GI50: 38.7 µM (inactive)
[19]
  GI50: 80.4 µM (inactive)
[20]
  GI50: 37.8 µM (inactive)

## NC(=O)NN=C1Cc2ccccc2C1
[1]
  GI50: > 100 µM (inactive)
[2]
  GI50: > 100 µM (inactive)
[3]
  GI50: > 100 µM (inactive)
[4]
  GI50: > 100 µM
[5]
  GI50: > 100 µM (inactive)
[6]
  GI50: > 100 µM (inactive)
[7]
  GI50: > 100 µM (inactive)
[8]
  GI50: > 100 µM (inactive)
[9]
  GI50: > 100 µM (inactive)
[10]
  GI50: > 100 µM (inactive)
[11]
  GI50: > 100 µM (inactive)
[12]
  GI50: > 100 µM (inactive)
[13]
  GI50: > 100 µM (inactive)
[14]
  GI50: > 100 µM (inactive)
[15]
  GI50: > 100 µM (inactive)
[16]
  GI50: > 100 µM (inactive)
[17]
  GI50: > 100 µM (inactive)
[18]
  GI50: > 100 µM (inactive)
[19]
  GI50: > 100 µM (inactive)
[20]
  GI50: > 100 µM (inactive)
